Data reported in the NIST ThermoML archive (doi:10.1016/j.jct.2012.03.025).
± gives the expanded uncertainty stated by the source.

How the values were obtained:
[1] = mn = molality of the nth substance listed, in mol/kg; conditions: 308.15 K; 101 kPa; Liquid; Vibrating tube method; m2 = 0
[2] = 308.15 K; 101 kPa; Liquid; Vibrating tube method

Row | mass density [1] [kg/m3] | mass density [2] [kg/m3] | Compound
1 | 994.058 ± 0.11 | – | O [water] + CC(=O)[O-].CCCCn1cc[n+](C)c1
2 | 994.058 ± 0.044 | – | O [water] + CCCCn1cc[n+](C)c1.[Cl-]
3 | 994.058 ± 0.079 | – | O [water] + CCCCn1cc[n+](C)c1.O=S(=O)([O-])C(F)(F)F
4 | – | 994.058 ± 0.044 | O [water]
5 | 994.058 ± 0.092 | – | O [water] + CCCCn1cc[n+](C)c1.[I-]
6 | 994.058 ± 0.055 | – | O [water] + CCCCn1cc[n+](C)c1.F[B-](F)(F)F
7 | 994.058 ± 0.064 | – | O [water] + CCCCn1cc[n+](C)c1.[Br-]
